Reference: patent US20240294533A1, “2-(HET)ARYL-SUBSTITUTED CONDENSED HETEROCYCLE DERIVATIVES AS PEST CONTROL AGENTS” (Bayer Aktiengesellschaft, priority 2021, published 2024)

What was measured:
Type in all cases: in vivo
Plutella xylostella = Plutella xylostella spray test (PLUTMA), comparative; conditions: 168 h, cabbage leaves, after 7 days
Source text: Plutella xylostella Spray Test (PLUTMA) Solvent: 14 parts by weight of dimethylformamide Emulsifier: alkylaryl polyglycol ether An appropriate active ingredient formulation is produced by dissolving 1 part by weight of active ingredient with the stated parts by weight of solvent and making the solution up to the desired concentration with water containing an emulsifier concentration of 1000 ppm. Further test concentrations are produced by diluting the formulation with emulsifier-containing water. If the addition of ammonium salts or/and penetrants is required, these are each added in a concentration of 1000 ppm to the formulation solution. Cabbage leaves (Brassica oleracea) are sprayed with an active ingredient formulation of the desired concentration and infected with larvae of the diamondback moth (Plutella xylostella). After 7 days, the kill in % is determined. 100% means that all caterpillars have been killed; 0% means that none of the caterpillars have been killed.

Spodoptera frugiperda [1] = experiment: Spodoptera frugiperda spray test (SPODFR), comparative; conditions: 168 h, cotton leaves, after 7 days; for Emax at 0.8 ppm: read-out: % Efficacy
Source text: (§1) Spodoptera frugtiperda—Spray Test (SPODFR) Solvent: 14 parts by weight of dimethylformamide Emulsifier: alkylaryl polyglycol ether An appropriate active ingredient formulation is produced by dissolving 1 part by weight of active ingredient with the stated parts by weight of solvent and making the solution up to the desired concentration with water containing an emulsifier concentration of 1000 ppm. Further test concentrations are produced by diluting the formulation with emulsifier-containing water. If the addition of ammonium salts or/and penetrants is required, these are each added in a concentration of 1000 ppm to the formulation solution. Cotton leaves (Gossypium hirsutum) are sprayed with an active ingredient formulation of the desired concentration and populated with caterpillars of the armyworm (Spodoptera frugiperda). After 7 days, the kill in % is determined. 100% means that all caterpillars have been killed; 0% means that none of the caterpillars have been killed.

Diabrotica balteata [2] = experiment: Diabrotica balteata spray test; conditions: Diabrotica balteata, 168 h; 100 g/ha (=32 μg/cavity), wheat grains, after 7 days; read-out: efficacy
Source text: Diabrotica balteata—Spray Test Solvent: 78 parts by weight of acetone • • 1.5 parts by weight of dimethylformamide Emulsifier: alkylaryl polyglycol ether An appropriate active ingredient formulation is produced by dissolving 1 part by weight of active ingredient with the stated parts by weight of solvent and making the solution up to the desired concentration with water containing an emulsifier concentration of 1000 ppm. Further test concentrations are produced by diluting the formulation with emulsifier-containing water. Pre-swollen wheat grains (Triticum aestivum) are incubated in a multiwell plate filled with agar and a little water for one day (5 seed grains per cavity). The germinated wheat grains are sprayed with an active ingredient formulation of the desired concentration. Subsequently, each cavity is infected with 10-20 beetle larvae of Diabrotica balteata. After 7 days, efficacy in % is determined. 100% means that all wheat plants have grown as in the untreated, uninfected control; 0% means that no wheat plant has grown.

Heliothis armigera = Heliothis armigera spray test (HELIAR), comparative; conditions: Helicoverpa armigera, 168 h, cotton plants, after 7 days
Source text: as §1, with “Heliothis Armigera Spray Test ([…])” for “Spodoptera frugtiperda—Spray Test (SPODFR)”, “Spray Test ([…]) Solvent: 14” for “frugtiperda—Spray Test (SPODFR) Solvent: 14”, “solution. Cotton plants (Gossypium hirsutum)” for “solution. Cotton leaves (Gossypium hirsutum)”, “desired concentration and, after drying, populated with” for “desired concentration and populated with”, “of the cotton bollworm (Heliothis armigera). After 7” for “of the armyworm (Spodoptera frugiperda). After 7”

Spodoptera frugiperda [3] = experiment: Spodoptera frugiperda spray test (maize leaf discs); conditions: Spodoptera frugiperda, foliar, 168 h, after 7 days, read-out: efficacy
Source text: Spodoptera Frusiperda—Spray Test Solvent: 78.0 parts by weight of acetone • • 1.5 parts by weight of dimethylformamide Emulsifier: alkylaryl polyglycol ether An appropriate active ingredient formulation is produced by dissolving 1 part by weight of active ingredient with the stated parts by weight of solvent and making the solution up to the desired concentration with water containing an emulsifier concentration of 1000 ppm. Further test concentrations are produced by diluting the formulation with emulsifier-containing water. Leaf discs of maize (Zea mays) are sprayed with an active ingredient formulation of the desired concentration and, after drying, populated with caterpillars of the fall armyworm (Spodoptera frugiperda). After 7 days, efficacy in % is determined. 100% means that all the caterpillars have been killed; 0% means that no caterpillar has been killed.

Meloidogyne incognita = Meloidogyne incognita test; conditions: Meloidogyne incognita, 336 h, lettuce, gall formation after 14 days, read-out: nematicidal efficacy
Source text: Meloidogyne incognita Test Solvent: 125.0 parts by weight of acetone An appropriate active ingredient formulation is produced by mixing 1 part by weight of active ingredient with the stated amount of solvent and diluting the concentrate to the desired concentration with water. Vessels are filled with sand, active ingredient solution, an egg/larvae suspension of the southern root-knot nematode (Meloidogyne incognita) and lettuce seeds. The lettuce seeds germinate and the plants develop. The galls develop on the roots. After 14 days, the nematicidal efficacy in % is determined by the formation of galls. 100% means that no galls were found; 0% means that the number of galls on the treated plants corresponds to the untreated control.

Nezara viridula = Nezara viridula spray test (infected barley plants sprayed); conditions: 100 g ai/ha, after 4 days
Source text: Nezara viridula—Spray Test Solvent: 52.5 parts by weight of acetone • 7 parts by weight of dimethylformamide Emulsifier: alkylaryl polyglycol ether An appropriate active ingredient formulation is produced by dissolving 1 part by weight of active ingredient with the stated parts by weight of solvent and making the solution up to the desired concentration with water containing an emulsifier concentration of 1000 ppm. Further test concentrations are produced by diluting the formulation with emulsifier-containing water. If the addition of ammonium salts or/and penetrants is required, these are each added in a concentration of 1000 ppm to the formulation solution. Barley plants (Hordeum vulgare) infected with larvae of the Southern green shield bug (Nezara viridula) are sprayed with an active ingredient formulation of the desired concentration. After 4 days, efficacy in % is determined. 100% means that all of the shield bugs have been killed; 0% means that none of the shield bugs have been killed.

Myzus persicae [4] = experiment: Myzus persicae spray test; conditions: 20 ppm, bell pepper plants, after 6 days
Source text: Myzus persicae—Spray Test Solvent: 14 parts by weight of dimethylformamide Emulsifier: alkylaryl polyglycol ether An appropriate active ingredient formulation is produced by dissolving 1 part by weight of active ingredient with the stated parts by weight of solvent and making the solution up to the desired concentration with water containing an emulsifier concentration of 1000 ppm. Further test concentrations are produced by diluting the formulation with emulsifier-containing water. If the addition of ammonium salts or/and penetrants is required, these are each added in a concentration of 1000 ppm to the formulation solution. Bell pepper plants (Capsicum annuum) severely infested with the green peach aphid (Myzus persicae) are treated by spraying with the active ingredient formulation in the desired concentration. After 6 days, the kill rate in % is determined. 100% means that all of the aphids have been killed; 0% means that none of the aphids have been killed.

Phaedon cochleariae = Phaedon cochleariae spray test; conditions: 100 g/ha, Chinese cabbage leaf discs, after 7 days
Source text: Phaedon cochleariae—Spray Test
Solvent: 78.0 parts by weight of acetone • • 1.5 parts by weight of dimethylformamide
Emulsifier: alkylaryl polyglycol ether
An appropriate active ingredient formulation is produced by dissolving 1 part by weight of active ingredient with the stated parts by weight of solvent and making the solution up to the desired concentration with water containing an emulsifier concentration of 1000 ppm. Further test concentrations are produced by diluting the formulation with emulsifier-containing water.
Discs of Chinese cabbage leaves (Brassica pekinensis) are sprayed with an active ingredient formulation of the desired concentration and, after drying, populated with larvae of the mustard beetle (Phaedon cochleariae).
After 7 days, efficacy in % is determined. 100% means that all the beetle larvae have been killed; 0% means that no beetle larvae have been killed.

Lucilia cuprina = Lucilia cuprina test; conditions: 100 ppm, L1 larvae, after 2 days
Experimental: Lucilia cuprina Test Solvent: dimethyl sulfoxide An appropriate active ingredient formulation is produced by mixing 10 mg of active ingredient with 0.5 ml of dimethyl sulfoxide and diluting the concentrate with water to the desired concentration. About 20 L1 larvae of the Australian sheep blowfly (Lucilia cuprina) are transferred into a test vessel containing minced horsemeat and the active ingredient formulation of the desired concentration. After 2 days, the kill rate in % is determined relative to the untreated control. 100% means that all the larvae have been killed; 0% means that no larvae have been killed.

Myzus persicae [5] = experiment: Myzus persicae oral test; conditions: 4 ppm, after 5 days
Experimental: Myzus persicae—Oral Test Solvent: 100 parts by weight of acetone An appropriate active ingredient formulation is produced by dissolving 1 part by weight of active ingredient with the specified parts by weight of solvent and making the solution up to the desired concentration with water. 50 μl of the active ingredient formulation is transferred into microtitre plates and made up to a final volume of 200 μl with 150 μl of IPL41 insect medium (33%+15% sugar). Subsequently, the plates are sealed with parafilm, which a mixed population of green peach aphids (Myzus persicae) within a second microtitre plate is able to puncture and imbibe the solution. After 5 days, efficacy in % is determined. 100% means that all the aphids have been killed; 0% means that no aphids have been killed.

Ctenocephalides felis = Ctenocephalides felis oral test; conditions: 100 ppm, oral via cattle blood, after 2 days
Experimental: Ctenocephalides felis—Oral Test Solvent: dimethyl sulfoxide An appropriate active ingredient formulation is produced by mixing 10 mg of active ingredient with 0.5 ml of dimethyl sulfoxide. Dilution with citrated cattle blood gives the desired concentration. About 20 unfed adult cat fleas (Ctenocephalides felis) are placed into a chamber which is closed at the top and bottom with gauze. Onto the chamber is placed a metal cylinder with its bottom end closed with parafilm. The cylinder contains the blood/active ingredient formulation, which can be imbibed by the fleas through the parafilm membrane. The cylinder is heated to 37° C., while the flea chambers are kept at room temperature. After 2 days, the kill rate in % is determined relative to the untreated control. 100% means that all of the fleas have been killed; 0% means that none of the fleas have been killed.

Diabrotica balteata [6] = experiment: Diabrotica balteata drench test; conditions: 20 ppm, soil drench, maize, after 8 days
Source text: Diabrotica balteata—Drench Test Solvent: 7 parts by weight of dimethylformamide Emulsifier: 2 parts by weight of alkylaryl polyglycol ether An appropriate active ingredient formulation is produced by mixing 1 part by weight of active ingredient with the specified amounts of solvent and emulsifier, and diluting the concentrate to the desired concentration with water, it being necessary to take account of the volume of soil which is drenched. It should be ensured that a concentration of 40 ppm of emulsifier in the soil is not exceeded. Further test concentrations are produced by diluting with water. 5 […] (Zea mays) in each case are sown into pots filled with earth, and the next day the pots are watered with the active ingredient preparation of the desired concentration. After one day, about 25 L2 larvae of the banded cucumber beetle (Diabrotica balteata) are added. After 8 days, efficacy in % is determined. 100% means that all 5 plants have germinated and grown; 0% means that none of the plants has emerged.

Musca domestica = Musca domestica test; conditions: 100 ppm, adult houseflies, after 2 days
Experimental: Musca domestica Test Solvent: dimethyl sulfoxide An appropriate active ingredient formulation is produced by mixing 10 mg of active ingredient with 0.5 ml of dimethyl sulfoxide and diluting the concentrate with water to the desired concentration. Vessels containing a sponge treated with sugar solution and the desired concentration of active compound formulation are populated with 10 adult houseflies (Musca domestica). After 2 days, the kill rate in % is determined relative to the untreated control. 100% means that all of the flies have been killed; 0% means that none of the flies have been killed.

Structure (SMILES) | Emax at 0.8 ppm (Spodoptera frugiperda [1]) | efficacy at 0.8 ppm (Plutella xylostella) | pest or weed control at 100 g/ha (Diabrotica balteata [2]) | pest or weed control at 100 g/ha (Spodoptera frugiperda [3]) | pest or weed control at 20 ppm (Meloidogyne incognita) | efficacy (Nezara viridula) | other results
Cn1c(-c2nc(-n3ncn(-c4ccc(Cl)cc4)c3=O)ccc2CS(C)(=O)=O)nc2cc(C(F)(F)F)cnc21 [I-33 known from WO 2017/055185, reference compound] | 0% | – | – | – | – | – | efficacy at 0.16 ppm (Plutella xylostella; 0.16 ppm): 15%
CCS(=O)(=O)c1ccc(-n2ncn(-c3ccc(Br)cc3)c2=O)nc1-c1nc2cc(C(F)(F)C(F)(F)F)nnc2n1C [Example I-14] | – | 100% | 100% | 100% | 100% | – | percent efficacy (kill) at fixed dose at 0.8 ppm (Heliothis armigera; 0.8 ppm): 100%; percent efficacy (kill) at fixed dose at 4 ppm (Heliothis armigera; 4 ppm): 100%; percent efficacy at tested dose at 0.8 ppm (Spodoptera frugiperda [1]): 100%
CCS(=O)(=O)c1ccc(-n2ncn(-c3cccc(F)c3)c2=O)nc1-c1nc2cc(C(F)(F)C(F)(F)F)nnc2n1C [Example I-12] | – | – | 100% | 100% | 100% | 100% | efficacy (kill rate) (Myzus persicae [4]): 98%
CCS(=O)(=O)c1ccc(-n2ncn(-c3ccc(Br)cc3)c2=O)nc1-c1nc2cc(C(F)(F)F)ccc2n1C [I-16 known from WO 2017/055185, reference compound] | 10% | 85% | – | – | – | – | Emax at 0.8 ppm (Heliothis armigera; 0.8 ppm, read-out: % Efficacy): 20%; Emax at 4 ppm (Heliothis armigera; 4 ppm, read-out: % Efficacy): 60%
CCS(=O)(=O)c1ccc(-n2ncn(-c3ccc(Cl)cc3)c2=O)nc1-c1nc2cc(C(F)(F)C(F)(F)F)nnc2n1C [Example I-22] | – | – | – | 100% | – | 90% | efficacy (Phaedon cochleariae): 100%; efficacy (kill rate) (Lucilia cuprina): 100%; efficacy (Myzus persicae [5]): 100%; efficacy (kill rate) (Ctenocephalides felis): 100%; efficacy (Diabrotica balteata [6]): 100%; efficacy (kill rate) (Musca domestica): 100%
